Test results: PubChem BioAssay AID248 (DTP/NCI, 2004)
Several values for one entry are separate records, joined by “and”; a condition that tells them apart may be missing. Identical values can stand only once. Toxic doses and inconclusive results are not listed.

Tested on: L1210 leukemia ip in BDF1 mice, survival T/C
Assay: NCI In Vivo Anticancer Drug Screen. Data for tumor model L1210 Leukemia (intraperitoneal) in B6D2F1 (BDF1) mice
Settings: endpoint: mean survival time, higher = longer survival
Method in brief: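 Survival endpoint. Drug-treated group vs vehicle group, expressed as T divided by C. Tumor passaged by transplantation.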

[1] = dose: 25.0 mg/kg/injection, schedule: Q01DX009 (ip), vehicle: saline with Tween-80
[2] = dose: 50.0 mg/kg/injection, schedule: Q01DX009 (ip), vehicle: saline with Tween-80
[3] = dose: 50.0 mg/kg/injection, schedule: Q01DX001 (ip), vehicle: saline
[4] = dose: 100.0 mg/kg/injection, schedule: Q01DX001 (ip), vehicle: saline
[5] = dose: 200.0 mg/kg/injection, schedule: Q01DX001 (ip), vehicle: saline
[6] = dose: 100.0 mg/kg/injection, schedule: Q01DX009 (ip), vehicle: Klucel (hydroxypropylcellulose) (HPC)
[7] = dose: 200.0 mg/kg/injection, schedule: Q01DX009 (ip), vehicle: Klucel (hydroxypropylcellulose) (HPC)
[8] = dose: 400.0 mg/kg/injection, schedule: Q01DX009 (ip), vehicle: Klucel (hydroxypropylcellulose) (HPC)
[9] = dose: 100.0 mg/kg/injection, schedule: Q04DX003 (ip), vehicle: Klucel (hydroxypropylcellulose) (HPC)
[10] = dose: 200.0 mg/kg/injection, schedule: Q04DX003 (ip), vehicle: Klucel (hydroxypropylcellulose) (HPC)
[11] = dose: 25.0 mg/kg/injection, schedule: Q01DX009 (ip), vehicle: saline
[12] = dose: 50.0 mg/kg/injection, schedule: Q01DX009 (ip), vehicle: saline
[13] = dose: 400.0 mg/kg/injection, schedule: Q01DX001 (ip), vehicle: saline

CCOC(=O)c1ccc(N=CNc2ccc(C(=O)OCC)cc2)cc1
T/C (dose: 12.5 mg/kg/injection, schedule: Q01DX001 (ip), vehicle: other): 106 % of control | T/C (dose: 12.5 mg/kg/injection, schedule: Q01DX009 (ip), vehicle: saline with Tween-80): 100 % of control | T/C (dose: 12.5 mg/kg/injection, schedule: Q04DX003 (ip), vehicle: saline with Tween-80): 96 % of control | T/C (dose: 25.0 mg/kg/injection, schedule: Q01DX001 (ip), vehicle: other): 95 % of control | T/C [1]: 93 % of control | T/C (dose: 25.0 mg/kg/injection, schedule: Q04DX003 (ip), vehicle: saline with Tween-80): 95 % of control | T/C (dose: 50.0 mg/kg/injection, schedule: Q01DX001 (ip), vehicle: other): 93 % of control | T/C [2]: 96 % of control | T/C (dose: 50.0 mg/kg/injection, schedule: Q04DX003 (ip), vehicle: saline with Tween-80): 95 % of control

C=CCNCC=C
T/C [3]: 96 % of control | T/C [4]: 96 % of control | T/C [5]: 98 % of control

C=CCNC(=S)Nc1cccc(OC(=O)NC(C)(C)C)c1
T/C [6]: 90 % of control | T/C [7]: 90 % of control | T/C [8]: 92 % of control

Cc1cnc(C#N)c(C#N)n1
T/C (dose: 12.5 mg/kg/injection, schedule: Q04DX002 (ip), vehicle: Klucel (hydroxypropylcellulose) (HPC)): 100 % of control | T/C (dose: 25.0 mg/kg/injection, schedule: Q04DX002 (ip), vehicle: Klucel (hydroxypropylcellulose) (HPC)): 96 % of control | T/C (dose: 50.0 mg/kg/injection, schedule: Q04DX002 (ip), vehicle: Klucel (hydroxypropylcellulose) (HPC)): 96 % of control

CC(C)CNS(=O)(=O)c1ncnc2nc[nH]c12
T/C (dose: 6.0 mg/kg/injection, schedule: Q01DX Z (ip), vehicle: carboxymethylcellulose (CMC)): 103 % of control | T/C (dose: 12.0 mg/kg/injection, schedule: Q01DX Z (ip), vehicle: carboxymethylcellulose (CMC)): 100 % of control | T/C (dose: 25.0 mg/kg/injection, schedule: Q01DX Z (ip), vehicle: carboxymethylcellulose (CMC)): 106 % of control | T/C (dose: 50.0 mg/kg/injection, schedule: Q01DX Z (ip), vehicle: carboxymethylcellulose (CMC)): 92 % of control

Nc1nc(CCl)nc(Nc2ccccc2)n1
T/C [6]: 105 % of control | T/C [9]: 104 % of control | T/C [7]: 86 % of control | T/C [10]: 98 % of control

O=S(=O)(Nc1ncccn1)c1ccc(N=NSC2=NC=NC3=NC=NC32)cc1 (configuration not stated)
T/C (dose: 100.0 mg/kg/injection, schedule: Q01DX001 (ip), vehicle: other): 104 % of control | T/C (dose: 200.0 mg/kg/injection, schedule: Q01DX001 (ip), vehicle: other): 124 % of control | T/C (dose: 400.0 mg/kg/injection, schedule: Q01DX001 (ip), vehicle: other): 106 % of control

CC(=O)Nc1cccc(C(=O)O)c1[N+](=O)[O-]
T/C [6]: 103 % of control | T/C (dose: 100.0 mg/kg/injection, schedule: Q04DX003 (ip), vehicle: saline): 103 % of control | T/C [7]: 97 % of control | T/C (dose: 200.0 mg/kg/injection, schedule: Q04DX003 (ip), vehicle: saline): 106 % of control | T/C [8]: 93 % of control | T/C (dose: 400.0 mg/kg/injection, schedule: Q04DX003 (ip), vehicle: saline): 103 % of control

c1ccc(C[N+]23CCN(CC2)CC3)cc1
T/C (dose: 12.5 mg/kg/injection, schedule: Q01DX009 (ip), vehicle: saline): 119 % of control | T/C [11]: 109 % of control | T/C [12]: 108 % of control

CNc1nc2ccccc2n1C1OC(CO)C(O)C1O (configuration not stated)
T/C [4]: 95 % of control | T/C [5]: 98 % of control | T/C [13]: 98 % of control

COc1cc(OC(=O)Nc2ccc([N+](=O)[O-])cc2OC)ccc1C=O
T/C (dose: 25.0 mg/kg/injection, schedule: Q01DX009 (ip), vehicle: Klucel (hydroxypropylcellulose) (HPC)): 92 % of control | T/C (dose: 50.0 mg/kg/injection, schedule: Q01DX009 (ip), vehicle: Klucel (hydroxypropylcellulose) (HPC)): 92 % of control | T/C [6]: 105 % of control and 88 % of control

COc1cc(C=Nc2ccc(-c3nc(C)sc3C)cc2)ccc1N(CCCl)CCCl
T/C (dose: 11.0 mg/kg/injection, schedule: Q01DX009 (ip), vehicle: carboxymethylcellulose (CMC)): 200 % of control | T/C (dose: 11.1 mg/kg/injection, schedule: Q01DX001 (ip), vehicle: carboxymethylcellulose (CMC)): 118 % of control | T/C (dose: 16.6 mg/kg/injection, schedule: Q01DX009 (ip), vehicle: carboxymethylcellulose (CMC)): 90 % of control | T/C (dose: 25.0 mg/kg/injection, schedule: Q01DX001 (ip), vehicle: carboxymethylcellulose (CMC)): 202 % of control

Cc1c(Cl)c(C)c(Cl)c(O)c1Cl (tested in a mixture with another compound)
T/C [1]: 97 % of control | T/C [2]: 93 % of control | T/C (dose: 100.0 mg/kg/injection, schedule: Q04DX002 (ip), vehicle: other): 95 % of control | T/C (dose: 200.0 mg/kg/injection, schedule: Q04DX002 (ip), vehicle: other): 90 % of control

Cc1ccc([N+](=O)[O-])cc1NC(=O)N(Cc1ccccc1)Cc1ccccc1
T/C (dose: 100.0 mg/kg/injection, schedule: Q04DX002 (ip), vehicle: Klucel (hydroxypropylcellulose) (HPC)): 95 % of control | T/C (dose: 200.0 mg/kg/injection, schedule: Q04DX002 (ip), vehicle: Klucel (hydroxypropylcellulose) (HPC)): 100 % of control | T/C (dose: 400.0 mg/kg/injection, schedule: Q04DX002 (ip), vehicle: Klucel (hydroxypropylcellulose) (HPC)): 106 % of control

CCCCOP(=O)(/C=C(\C#N)C(=O)OCC)OCCCC
T/C [9]: 87 % of control | T/C [10]: 103 % of control | T/C (dose: 400.0 mg/kg/injection, schedule: Q04DX003 (ip), vehicle: Klucel (hydroxypropylcellulose) (HPC)): 98 % of control

O=[N+]([O-])c1ccn(O)c(=NC2CCCCC2)c1
T/C [4]: 98 % of control | T/C [5]: 93 % of control | T/C [13]: 100 % of control

COC(=O)c1ccccc1NC(=S)NC(=O)c1ccc(Cl)cc1Cl
T/C (dose: 100.0 mg/kg/injection, schedule: Q01DX001 (ip), vehicle: saline with Tween-80): 92 % of control | T/C (dose: 100.0 mg/kg/injection, schedule: Q01DX009 (ip), vehicle: saline with Tween-80): 97 % of control and 102 % of control | T/C (dose: 100.0 mg/kg/injection, schedule: Q04DX002 (ip), vehicle: saline with Tween-80): 101 % of control and 88 % of control | T/C (dose: 100.0 mg/kg/injection, schedule: Q04DX003 (ip), vehicle: saline with Tween-80): 87 % of control | T/C (dose: 200.0 mg/kg/injection, schedule: Q01DX001 (ip), vehicle: saline with Tween-80): 92 % of control | T/C (dose: 200.0 mg/kg/injection, schedule: Q01DX009 (ip), vehicle: saline with Tween-80): 95 % of control and 97 % of control | T/C (dose: 200.0 mg/kg/injection, schedule: Q04DX002 (ip), vehicle: saline with Tween-80): 103 % of control and 92 % of control | T/C (dose: 200.0 mg/kg/injection, schedule: Q04DX003 (ip), vehicle: saline with Tween-80): 90 % of control | T/C (dose: 400.0 mg/kg/injection, schedule: Q01DX001 (ip), vehicle: saline with Tween-80): 89 % of control | T/C (dose: 400.0 mg/kg/injection, schedule: Q01DX009 (ip), vehicle: saline with Tween-80): 97 % of control and 98 % of control | T/C (dose: 400.0 mg/kg/injection, schedule: Q04DX002 (ip), vehicle: saline with Tween-80): 106 % of control and 88 % of control | T/C (dose: 400.0 mg/kg/injection, schedule: Q04DX003 (ip), vehicle: saline with Tween-80): 92 % of control

CCCCCCCCCCNCCC(=O)O
T/C (dose: 12.5 mg/kg/injection, schedule: Q01DX001 (ip), vehicle: saline): 94 % of control | T/C (dose: 25.0 mg/kg/injection, schedule: Q01DX001 (ip), vehicle: saline): 94 % of control | T/C [11]: 104 % of control | T/C (dose: 37.5 mg/kg/injection, schedule: Q01DX009 (ip), vehicle: saline): 104 % of control | T/C [3]: 100 % of control | T/C [12]: 102 % of control | T/C (dose: 75.0 mg/kg/injection, schedule: Q01DX001 (ip), vehicle: saline): 101 % of control | T/C (dose: 75.0 mg/kg/injection, schedule: Q01DX009 (ip), vehicle: saline): 88 % of control | T/C [4]: 101 % of control | T/C (dose: 100.0 mg/kg/injection, schedule: Q01DX009 (ip), vehicle: saline): 104 % of control | T/C (dose: 150.0 mg/kg/injection, schedule: Q01DX001 (ip), vehicle: saline): 94 % of control

O=C(Nc1ccc(F)c([N+](=O)[O-])c1)Nc1cccc2c(O)cccc12
T/C [6]: 101 % of control | T/C [7]: 103 % of control | T/C [8]: 97 % of control
